Assay results from the supplement of paper PMC5579334.

Key:
[1] = tested on: HS-Sch-2; assay: relative IC50 (inflection point of fitted dose-response curve, CellTiter-Glo viability, 72 h; top asymptote may be below 50% inhibition); higher = less potent
How it was run: (§1)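 MPNST cell lines and primary human Schwann cells were seeded at 750–1000 cells per well into 384-well plates preprinted with each compound at five concentrations in 10-fold steps, then incubated 72 h at 37 °C, 5% CO2. CellTiter-Glo ATP luminescence gave viability, scaled between vehicle and positive-control wells, with duplicates averaged where present. Curves were fitted with a four-parameter logistic model. Percent inhibition refers to the top concentration, while drug sensitivity score and relative IC50, censored at the top concentration, come from these fits.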

[2] = tested on: YST-1; assay: as above
How it was run: as §1

[3] = tested on: HS-PSS; assay: relative IC50 (inflection point of fitted dose-response curve, CellTox-Green cytotoxicity, 72 h; top asymptote may be below 50%); higher = less potent
How it was run: (§2)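 For 72 h at 37 °C, MPNST cell lines and primary human Schwann cells were exposed in 384-well plates to five 10-fold compound dilutions. CellTox-Green, added before seeding at a final 1:1000 dilution, gave fluorescence from DNA released by disrupted cells. Signals were scaled to vehicle and positive-control wells, cultures failing plate quality control were left out, and four-parameter logistic fits were applied. Relative IC50 and drug sensitivity score were derived from the fits, with IC50 censored at the top concentration.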

[4] = tested on: HS-PSS; assay: drug sensitivity score (DSS, CellTox-Green cytotoxicity, 72 h) (DSS (dimensionless)); higher = more cytotoxic; extreme values may be limits of the assay
How it was run: as §2

[5] = tested on: HS-PSS; assay: drug sensitivity score (DSS, CellTiter-Glo viability, 72 h) (DSS (dimensionless)); higher = more sensitive; extreme values may be limits of the assay
How it was run: as §1

[6] = tested on: HS-Sch-2; assay: as above
How it was run: as §1

[7] = tested on: YST-1; assay: as above
How it was run: as §1

[8] = tested on: HS-PSS; assay: % inhibition of CellTiter-Glo viability at highest tested concentration (72 h), relative to DMSO and benzethonium chloride controls; higher = more inhibition
How it was run: as §1

[9] = tested on: HS-Sch-2; assay: as above
How it was run: as §1

[10] = tested on: YST-1; assay: as above
How it was run: as §1

Structure (SMILES) | relative IC50 [1] | relative IC50 [2] | relative IC50 [3] | also measured
CNc1nc(Nc2cn(C(C)(C)C#N)nc2C)ncc1C(F)(F)F [GNE-0877] | > 1000 nM | > 1000 nM | > 1000 nM | 
C=CC(=O)Nc1cccc(Nc2nc(Nc3ccc(OCCOC)cc3)ncc2F)c1 [Spebrutinib] |  |  | > 1000 nM | 
O=C(Nc1nc2cccc(-c3ccc(CN4CCS(=O)(=O)CC4)cc3)n2n1)C1CC1 [Filgotinib] | 2680 nM | 3690 nM | > 10000 nM | 
C#Cc1cccc(Nc2ncnc3cc4c(cc23)OCCOCCOCCO4)c1 [Icotinib] |  |  | > 10000 nM | 
CCCNC(=O)Nc1ccc(Oc2ncnc3cc(OC)c(OC)cc23)cc1Cl [KRN-633] | > 2500 nM | > 2500 nM | > 2500 nM | 
CCN1CCN(Cc2ccc(Nc3ncc(F)c(-c4cc(F)c5nc(C)n(C(C)C)c5c4)n3)nc2)CC1 [Abemaciclib] | 1010 nM | 27.5 nM | > 2500 nM | 
Cc1nc(=O)c2cc(CN(C)c3ccc(C(=O)N[C@@H](CCC(=O)O)C(=O)O)s3)ccc2[nH]1 [Raltitrexed] | 22.7 nM | 11.2 nM | > 1000 nM | 
Cn1cc(-c2ccc3nnc(C(F)(F)c4ccc5ncccc5c4)n3n2)cn1 |  |  | > 10000 nM | 
O=C(NOC[C@H](O)CO)c1ccc(F)c(F)c1Nc1ccc(I)cc1F |  | > 1000 nM | > 1000 nM | 
CCc1nc(-c2cccc(C)c2)c(-c2ccnc(NC(=O)c3ccccc3)c2)s1 [TAK-715] | 1210 nM |  | > 10000 nM | 
Cc1cccc(-c2[nH]c(CNc3ccccc3F)nc2-c2ccc3ncnn3c2)n1 [TEW-7197] |  | > 2500 nM | > 2500 nM | 
O=C(NC[C@H](O)CN1CCc2ccccc2C1)c1cc(NC2COC2)ncn1 |  |  | > 10000 nM | 
Cc1ccccc1C(C(=O)NC1CCCCC1)N(C(=O)Cn1ccnc1C)c1cccc(F)c1 (stereo unspecified) [AGI-5198] |  | > 10000 nM | > 10000 nM | 
OCCn1cc(-c2cnc3nnn(Cc4ccc5ncccc5c4)c3n2)cn1 | > 2500 nM |  | > 2500 nM | 
O=C(Nc1ccc(OC(F)(F)F)cc1)c1sccc1NCc1ccnc2ccccc12 [OSI-930] |  | > 2500 nM | > 2500 nM | 
O=C(Nc1cc(Cl)cc2c1[nH]c1cnccc12)c1cccnc1 [PS-1145] | > 25000 nM |  | > 25000 nM | 
Cc1ncc(Cl)cc1NCc1ccc(C(=O)N[C@@H](CC2CCCC2)C(=O)NC2CC2)s1 |  | 103 nM | > 5000 nM | 
O=C(NOCC1CC1)c1ccc(F)c(F)c1Nc1ccc(I)cc1Cl | 1630 nM |  | > 10000 nM | 

Structure (SMILES) | relative IC50 [1] | relative IC50 [2] | relative IC50 [3] | also measured
Clc1ccccc1C(c1ccccc1)(c1ccccc1)n1cccn1 [TRAM-34] |  | > 1000 nM | > 1000 nM | 
CCN(c1cc(-c2ccc(CN3CCOCC3)cc2)cc(C(=O)NCc2c(C)cc(C)[nH]c2=O)c1C)C1CCOCC1 [Tazemetostat] |  | > 10000 nM | > 10000 nM | 
COc1cccc2c1c(O)c(C(=O)N(C)c1ccc(C(F)(F)F)cc1)c(=O)n2C [Tasquinimod] | > 10000 nM |  | > 10000 nM | 
Cc1[nH]c(/C=C2\C(=O)Nc3ccccc32)c(C)c1CCC(=O)O [Orantinib] | > 10000 nM |  | 205 nM | 
COc1ccc(Cl)c(Nc2nc3ccccc3nc2NS(=O)(=O)c2cccc(NC(=O)C(C)(C)N)c2)c1 [Pilaralisib] |  | 674 nM | > 2500 nM | 
CN1CCN(C2CCN(C(=O)Nc3cc(Oc4ccc(NC(=O)C5(C(=O)Nc6ccc(F)cc6)CC5)c(F)c4)ccn3)CC2)CC1 [Golvatinib] |  |  | > 2500 nM | 
N#CC1(c2ccc(NC(=O)c3cccnc3NCc3ccncc3)cc2)CCCC1 [Apatinib] | > 10000 nM |  | > 10000 nM | 
Cc1cc(-c2ncc(-c3cccnc3)cc2/C=C/c2ccccc2)cnc1-c1cccnc1 [Pyridoclax] |  | 672 nM | > 25000 nM | 
COC(=O)N[C@@H](C)CNc1nccc(-c2cn(C(C)C)nc2-c2cc(Cl)cc(NS(C)(=O)=O)c2F)n1 [Encorafenib] |  | > 1000 nM | > 1000 nM | 
CCN1CCN(Cc2ccc(-c3cc4c(N[C@H](C)c5ccccc5)ncnc4[nH]3)cc2)CC1 [NVP-AEE788] | > 2500 nM |  | > 2500 nM | 
COc1cc(C(=O)NC2CCN(C)CC2)c(F)cc1Nc1ncc2c(n1)N(C1CCCC1)CC(F)(F)C(=O)N2C [TAK-960] |  | > 2500 nM | > 2500 nM | 
CN1CC[C@@H](NC(=O)Nc2ccc(C#N)cc2)C[C@@H]1c1nc2ccccc2[nH]1 [Glasdegib] |  | > 1000 nM | > 1000 nM | 
Cc1nc(NC(=O)N2CCC[C@H]2C(N)=O)sc1-c1ccnc(C(C)(C)C(F)(F)F)c1 [Alpelisib] |  | 217 nM | > 2500 nM | 
O=C(Nc1cccc(C(F)(F)F)c1)Nc1cc(S(=O)(=O)NC2CC2)ccc1-c1ccsc1 [AGI-6780] | 1400 nM |  | > 10000 nM | 
CC(C)Oc1cc(Nc2nc(N[C@@H](C)c3ccc(F)cn3)ncc2Cl)n[nH]1 [AZ-23] |  | 162 nM |  | 
O=c1ncn2nc(Sc3ccc(F)cc3F)ccc2c1-c1c(Cl)cccc1Cl [VX 745] |  | 778 nM | > 10000 nM | 
FC(F)(F)c1ccc(/C=C/c2nc(COc3ccc(CCCCn4ccnn4)cc3)co2)cc1 [Mubritinib] (max concentration tested 1000 nM) |  |  |  | drug sensitivity score [4]: 0; drug sensitivity score [5]: 17.4; drug sensitivity score [6]: 12.9; drug sensitivity score [7]: 6.65; % inhibition [8]: 74.8%; % inhibition [9]: 62.9%; % inhibition [10]: 28.4%
CCOc1ccn(-c2ccc(F)cc2)c(=O)c1C(=O)Nc1ccc(Oc2ccnc(N)c2Cl)c(F)c1 (max concentration tested 2500 nM) |  |  |  | drug sensitivity score [4]: 0; drug sensitivity score [5]: 1.43; drug sensitivity score [6]: 0; drug sensitivity score [7]: 0; % inhibition [8]: 15.6%; % inhibition [9]: 4.22%; % inhibition [10]: 2.08%
